# Assays:
# [1] = system: Human gastric cancer cells (MKN-45); experiment: Inhibitory activity against the proliferation of human gastric cancer cells (MKN-45); type: cell-based; conditions: 72 h, MKN-45, 1% FBS RPMI1640, 3 days, Cell Counting Kit-8, read-out: IC50 (concentration necessary to inhibit the cell proliferation by 50%)
# Method: Human gastric cancer cells (MKN-45) were suspended in a 1% FBS-containing RPMI1640 medium (purchased from Sigma). The cell suspension (1×10^4 cells/ml) was added in a 96-well plate for cell culture (purchased from NUNC, Production No. 167008) at 0.1 ml/well, and then cultured in a 5% CO2 incubator (37° C.) overnight. After the culture, each well was supplied with 0.1 ml of a test substance diluted with a 1% FBS-containing RPMI1640 medium, followed by culturing in a 5% CO2 incubator (37° C.) for 3 days. After the culture, each well was supplied with 10 μl of Cell Counting Kit-8 (purchased from DOJINDO, Production No. 343-07623), followed by incubation in a 5% CO2 incubator (37° C.) for about 1.5 hrs. After the incubation, using the Plate Reader MTP-500 (Corona Electric), the absorbance of each well was determined at a measurement wavelength of 450 nm and a reference wavelength of 660 nm. The ratio (%) of absorbance of each well supplied with a test substance to absorbance of the well supplied with no test substance was calculated, and the ratio was used to calculate the concentration (IC50) of the test substance necessary to inhibit the cell proliferation by 50%.
# HGFR autophosphorylation = target: T1, HGFR autophosphorylation (Homo sapiens, UniProt P08581); experiment: Inhibitory activity against the HGFR autophosphorylation using ELISA; type: cell-based; conditions: MKN-45 cells, 1 hr treatment, read-out: IC50 (concentration necessary to inhibit HGFR autophosphorylation activity by 50%)
# T1 construct: endogenous in cells; host or cells: MKN-45 human gastric cancer cells
# T1 sequence (P08581 25-1390): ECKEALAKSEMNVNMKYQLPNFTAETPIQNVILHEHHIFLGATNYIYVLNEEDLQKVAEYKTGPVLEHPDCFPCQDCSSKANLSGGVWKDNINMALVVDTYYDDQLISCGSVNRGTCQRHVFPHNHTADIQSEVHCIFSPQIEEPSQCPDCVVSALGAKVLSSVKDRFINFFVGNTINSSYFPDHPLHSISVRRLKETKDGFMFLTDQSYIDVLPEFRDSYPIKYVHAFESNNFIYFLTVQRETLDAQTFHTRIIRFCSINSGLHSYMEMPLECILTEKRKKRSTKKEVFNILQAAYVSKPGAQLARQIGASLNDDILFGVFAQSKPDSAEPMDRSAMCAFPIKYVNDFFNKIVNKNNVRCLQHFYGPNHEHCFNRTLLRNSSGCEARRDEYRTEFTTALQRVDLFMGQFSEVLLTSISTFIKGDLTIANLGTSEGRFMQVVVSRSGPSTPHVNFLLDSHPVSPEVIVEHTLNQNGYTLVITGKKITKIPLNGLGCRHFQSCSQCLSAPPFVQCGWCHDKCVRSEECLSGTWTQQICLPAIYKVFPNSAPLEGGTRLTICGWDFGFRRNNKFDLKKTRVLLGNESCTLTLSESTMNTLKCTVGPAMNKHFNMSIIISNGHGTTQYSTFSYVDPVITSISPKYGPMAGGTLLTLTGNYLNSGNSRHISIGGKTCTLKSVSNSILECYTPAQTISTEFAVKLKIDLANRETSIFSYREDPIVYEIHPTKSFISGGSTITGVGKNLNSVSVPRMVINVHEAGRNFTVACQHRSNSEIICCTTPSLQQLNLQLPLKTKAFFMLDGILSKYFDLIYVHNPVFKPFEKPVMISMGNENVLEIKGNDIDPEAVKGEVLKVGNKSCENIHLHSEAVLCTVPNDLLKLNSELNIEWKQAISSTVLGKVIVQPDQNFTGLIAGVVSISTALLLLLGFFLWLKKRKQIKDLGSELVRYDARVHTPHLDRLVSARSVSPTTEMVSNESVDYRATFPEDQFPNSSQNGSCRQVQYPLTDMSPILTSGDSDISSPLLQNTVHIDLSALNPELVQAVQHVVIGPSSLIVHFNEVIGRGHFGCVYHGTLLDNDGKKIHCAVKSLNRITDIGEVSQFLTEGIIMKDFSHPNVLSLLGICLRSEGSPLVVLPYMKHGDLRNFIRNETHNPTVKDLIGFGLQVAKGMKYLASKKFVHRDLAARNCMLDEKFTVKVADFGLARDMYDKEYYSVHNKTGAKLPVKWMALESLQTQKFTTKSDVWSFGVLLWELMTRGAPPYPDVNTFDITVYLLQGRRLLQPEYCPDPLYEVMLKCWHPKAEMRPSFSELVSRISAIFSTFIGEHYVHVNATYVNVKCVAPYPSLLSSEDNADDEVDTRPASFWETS
# Method: Human gastric cancer cells (MKN-45) were suspended in a 1% FBS-containing RPMI1640 medium (purchased from Sigma). The cell suspension (1×10^5 cells/ml) was put in a 96-well plate for cell culture (purchased from NUNC, Production No. 167008) at 0.1 ml/well, and then cultured in a 5% CO2 incubator (37° C.) overnight. After the culture, from each well was removed the supernatant solution, followed by adding 0.05 ml of a 1% FBS-containing RPMI1640 medium. Then, the well was supplied with 0.05 ml of the test substance dissolved in dimethyl sulfoxide (diluted with a 1% FBS-containing RPMI1640 medium), followed by culturing in a 5% CO2 incubator (37° C.) for 1 hr. From each well was removed the supernatant, and each well was washed with 150 μl of PBS, followed by adding 100 μl of a lysis buffer (50 mM Hepes (pH 7.4), 150 mM NaCl, 10% (v/v) glycerol, 1% Triton X-100, 1.5 mM MgCl2, 1 mM EDTA (pH 8.0), 100 mM NaF, 1 mM PMSF, 10 μg/ml Aprotinin, 50 μg/ml Leupeptin, 1 μg/ml Pepstatin A and 1 mM Na3VO4). The plate was shaken at 4° C. for 1 hr to prepare the cell extract.
# To a 96-well plate for ELISA (purchased from COSTAR, Production No. 3369) was added 50 μl of 60 mM bicarbonate buffer (pH 9.6) containing 50 μg/ml of an anti-phosphotyrosine antibody (PY20, purchased from Transduction Laboratory, Production No. P-11120). The plate was incubated at 4° C. overnight.
# Each well of the plate prepared in 2. was washed three times with 200 μl of PBS, and supplied with 150 μl of 3% BSA/PBS, followed by incubating at room temperature for 2 hrs. Each well was washed three times with 200 μl of PBS, and supplied with 50 μl of the above cell extract, followed by incubating at 4° C. overnight. After the incubation, each well was washed three times with 250 μl of a washing solution (0.1% BSA, 20 mM Tris-HCl (pH 7.6), 137 mM NaCl, and 0.05% Tween-20), and supplied with 70 μl of anti-HGFR antibody (h-Met(C-12), purchased from Santa Cruz, Production No. sc-10) 2,000-fold diluted with a reaction solution (1% BSA, 20 mM Tris-HCl (pH 7.6), 137 mM NaCl and 0.05% Tween-20), followed by incubating at room temperature for 1 hr. The well was washed three times with 250 μl of the washing solution, and supplied with 70 μl of peroxidase-labelled anti-rabbit IgG antibody (purchased from Cell Signaling, Production No. 7074) 2,000-fold diluted with the reaction solution, followed by incubating at room temperature for 1 hr. Each well was washed three times with 250 μl of the washing solution, and supplied with 70 μl of TMB Membrane Peroxidase Substrate (purchased from Funakoshi, Production No. 50-5077-03), followed by incubating at room temperature for 10 min. Each well was supplied with 70 μl of 1 M phosphoric acid, and using the Plate Reader MTP-500 (Corona Electric), the absorbance of the well was instantly determined at a measurement wavelength of 450 nm. While defining the absorbance of a well supplied with the cell extract having no test substance as 100% HGFR autophosphorylation activity, and the absorbance of a well supplied with 50 μl of the lysis buffer as 0% HGFR autophosphorylation activity, the HGFR autophosphorylation activity (%) was calculated for each well. The concentration of the test substance was changed by several levels to calculate HGFR autophosphorylation activities (%) in respective cases, and to calculate the concentration (IC50) of the test substance necessary to inhibit HGFR autophosphorylation activity by 50%.
smiles,measurement,setting,value
"CN1CCC(N(C)C(=O)Nc2cc(Oc3ccc(NC(=S)NC(=O)Cc4ccccc4)cc3F)ccn2)CC1 [Example 28, 3-{4-[2-Fluoro-4-(3-phenylacetylthioureido)phenoxy]pyridin-2-yl}-1-methyl-1-(1-methylpiperidin-4-yl)urea]",IC50,[1],5.8 nM
same,IC50,HGFR autophosphorylation,19 nM

# Source: US20070270421A1, “Novel pyridine Derivative and Pyrimidine Derivative (1)” (priority 2004, published 2007)
